ChEMBL document CHEMBL5375968, “Peptide TK-HR from the Skin of Chinese Folk Medicine Frog Hoplobatrachus Rugulosus Accelerates Wound Healing via the Activation of the Neurokinin-1 Receptor” (J Med Chem, 2023)
The source made the active and inactive calls. The rule behind the calls is not given here.

What was measured:
Neutrophil [1] = assay: Induction of cell migration in Aprepitant-treated BALB/c mouse neutrophils at 5 to 40 uM incubated for 8 hrs by transwell migration assay; format: functional, cell-based; details: dose 5-40 µM
RAW264.7 [2] = assay: Upregulation of phosphorylated Smad3 level in Aprepitant-treated mouse RAW264.7 cells at 2.5 to 20 uM incubated for 4 hrs by Western blot analysis; format: functional, cell-based; details: dose 2.5-20 µM
HUVEC [3] = assay: Induction of cell migration in HUVEC cells assessed as healing rate at 20 uM measured after 48 hrs by scratch healing assay (reference value: 57.2 %); format: functional, Homo sapiens
Neutrophil [4] = assay: Induction of chemotaxis in BALB/c mouse neutrophils assessed as increase in cell polarization measured for 15 mins by Zigmond-chamber based microscopy; format: functional; details: dose 5-40 µM
HUVEC [5] = assay: Induction of cell migration in Aprepitant-treated HUVEC cells assessed as healing rate at 20 uM measured after 24 hrs by scratch healing assay (reference value: 30.2 %); format: functional, Homo sapiens
RAW264.7 [6] = assay: Cytotoxicity against mouse RAW264.7 cells assessed as cell viability at 5 to 40 uM incubated for 24 hrs by MTT assay; format: toxicity, cell-based; details: raw264.7, 24 h, dose 5-40 µM
[7] = Induction of wound healing in BALB/c mouse model of full-thickness wounds at 200 ug/ml, TOP bid measured after 2 days (reference value: 30.4 %); format: functional; details: dose 200 µg/ml, time 2 day
[8] = Toxicity in BALB/c mouse model of full-thickness wounds assessed as adverse effect in behaviour at 50 to 200 ug/ml, TOP bid measured upto 8 days; details: in vivo, topical_or_ocular, 192 h, dose 50-200 µg/ml, time < 8 day
Mus musculus [9] = organism: Mus musculus; assay: Induction of wound healing in BALB/c mouse model of full-thickness wounds assessed as reduction in epidermal cells in wound skin at 50 ug/ml, TOP bid measured after 4 days by IHC analysis; format: functional, cell-based; details: dose 50.0 µg/ml, time 4.0 day
Neutrophil [10] = assay: Induction of ROS production in BALB/c mouse neutrophils at 10 to 20 uM incubated for 2 hrs by DCFH-DA staining based analysis; format: functional, cell-based; details: dose 10-20 µM
[11] = Induction of TGF-beta1 level in mouse RAW264.7 cells at 20 uM incubated for 24 hrs by ELISA; format: functional
Cutibacterium acnes = assay: Antimicrobial activity against Propionibacterium acnes ATCC 6919 assessed as microbial growth inhibition at 100 uM; format: functional, organism-based
[12] = Induction of TGF-beta1 level in Aprepitant-treated mouse RAW264.7 cells at 10 uM incubated for 24 hrs by ELISA; format: functional
Candida albicans = assay: Antimicrobial activity against Candida albicans ATCC 10231 assessed as microbial growth inhibition at 100 uM; format: functional, organism-based
Mus musculus [13] = organism: Mus musculus; assay: Induction of wound healing in BALB/c mouse model of full-thickness wounds assessed as increase in recruitment of M2-type macrophages in wound skin at 50 ug/ml, TOP bid measured after 4 days by IHC analysis; format: functional; details: dose 50.0 µg/ml, time 4.0 day
[14] = Induction of wound healing in BALB/c mouse model of full-thickness wounds at 50 ug/ml, TOP bid measured after 6 days (reference value: 71.7 %); format: functional; details: dose 50 µg/ml, time 6 day
NIH3T3 = assay: Effect on TGF-1beta production in mouse 3T3 cells at 5 to 40 uM incubated for 24 hrs by ELISA; format: functional, cell-based; details: dose 5-40 µM
Neutrophil [15] = assay: Induction of wound healing in BALB/c mouse model of full-thickness wounds assessed as increase in number of neutrophil infiltration in wound skin at 50 ug/ml, TOP bid measured after 2 days by IHC analysis; format: functional, cell-based; details: dose 50.0 µg/ml, time 2.0 day
Mus musculus [16] = organism: Mus musculus; assay: Induction of wound healing in BALB/c mouse model of full-thickness wounds assessed as increase in phosphorylated Smad3 level in wound skin at 50 to 200 ug/ml, TOP bid measured after 4 days by Western blot analysis; format: functional; details: dose 50-200 µg/ml, time 4.0 day
Mus musculus [17] = organism: Mus musculus; assay: Induction of wound healing in BALB/c mouse model of full-thickness wounds assessed as increase in granulation tissue formation at 50 ug/ml, TOP bid measured after 8 days by H and E staining based analysis; format: functional; details: dose 50.0 µg/ml, time 8.0 day
Mus musculus [18] = organism: Mus musculus; assay: Induction of wound healing in BALB/c mouse model of full-thickness wounds assessed as increase in phosphorylated Smad2 level in wound skin at 50 to 200 ug/ml, TOP bid measured after 4 days by Western blot analysis; format: functional; details: dose 50-200 µg/ml, time 4.0 day
RAW264.7 [19] = assay: Effect on total Smad3 level in mouse RAW264.7 cells at 2.5 to 20 uM incubated for 4 hrs by Western blot analysis; format: functional, cell-based; details: dose 2.5-20 µM
Mus musculus [20] = organism: Mus musculus; assay: Induction of wound healing in BALB/c mouse model of full-thickness wounds assessed as increase in TGF-1beta production in wound skin at 50 to 200 ug/ml, TOP bid measured after 8 days by ELISA; format: functional; details: dose 50-200 µg/ml, time 8.0 day
RAW264.7 [21] = assay: Induction of cell migration in Aprepitant-treated mouse RAW264.7 cells at 5 to 20 uM incubated for 24 hrs by crystal violet staining based microscopy; format: functional; details: dose 5-20 µM
Staphylococcus aureus = assay: Antimicrobial activity against Staphylococcus aureus ATCC 25923 assessed as microbial growth inhibition at 100 uM; format: functional, organism-based
RAW264.7 [22] = assay: Effect on total JNK level in mouse RAW264.7 cells at 2.5 to 20 uM incubated for 4 hrs by Western blot analysis; format: functional, cell-based; details: dose 2.5-20 µM
[23] = (§1) Induction of wound healing in BALB/c mouse model of full-thickness wounds assessed as recruitment of M1-type macrophages in wound skin at 50 ug/ml, TOP bid measured after 2 days by flow cytometry (reference value: 60.9 %); format: functional; details: dose 50 µg/ml, time 2 day
Mus musculus [24] = organism: Mus musculus; assay: as §1; format: functional; details: dose 50.0 µg/ml, time 2.0 day
[25] = Toxicity in BALB/c mouse model of full-thickness wounds assessed as inflammatory foci in spleen at 200 ug/ml, TOP bid measured upto 8 days by H and E staining based analysis; format: tissue-based; details: in vivo, topical_or_ocular, 192 h, dose 200 µg/ml, time < 8 day
RAW264.7 [26] = assay: Induction of phagocytosis in mouse RAW264.7 cells assessed as increase in neutral red dye uptake by measuring optical density at 540 nm at 5 uM incubated for 24 hrs followed by dye addition measured after 4 hrs by absorbance based assay (reference value: 0.073); format: functional; details: time 28 hrs
Neutrophil [27] = assay: Induction of cell migration in BALB/c mouse neutrophils incubated for 8 hrs by transwell migration assay; format: functional, cell-based; details: dose 5-40 µM
RAW264.7 [28] = assay: Induction of phagocytosis in mouse RAW264.7 cells cultured with Escherichia coli ATCC 25922 assessed as number of surviving engulfed bacteria at 2.5 uM incubated for 24 hrs followed by bacterial exposure for 1 hr and further treated with gentamycin for 2 hrs by plate counting method (reference value: 37); format: functional; details: time 27 hrs
Neutrophil [29] = assay: Induction of chemotaxis in BALB/c mouse neutrophils assessed as increase in ratio of cell polarization at 40 uM measured for 15 mins by Zigmond-chamber based microscopy (reference value: 14.6 %); format: functional; details: 0.25 h
RAW264.7 [30] = assay: Effect on total p38 level in mouse RAW264.7 cells at 2.5 to 20 uM incubated for 4 hrs by Western blot analysis; format: functional, cell-based; details: dose 2.5-20 µM
[31] = Induction of wound healing in BALB/c mouse model of full-thickness wounds at 50 ug/ml, TOP bid measured after 2 days (reference value: 30.4 %); format: functional; details: dose 50 µg/ml, time 2 day

## H-KPNPDRFYGLM-NH2
Neutrophil [1]
  Activity: inactive
RAW264.7 [2]
  Activity: inactive
HUVEC [3]
  Activity: 83.4%
Neutrophil [4]
  Activity: Dose-Dependent Effect
HUVEC [5]
  Activity: 35.9%
RAW264.7 [6]
  Activity: Non-Toxic
[7]
  Activity: 52.8%
[8]
  Activity: Non-Toxic
Mus musculus [9]
  Activity: Active
Neutrophil [10]
  Activity: Active
[11]
  Activity: 119.3 pg/mL
Cutibacterium acnes
  Activity: inactive
[12]
  Activity: 43.7 pg/mL
Candida albicans
  Activity: inactive
Mus musculus [13]
  Activity: Active
[14]
  Activity: 86.6%
NIH3T3
  Activity: inactive
Neutrophil [15]
  Activity: Active
Mus musculus [16]
  Activity: Active
Mus musculus [17]
  Activity: Active
Mus musculus [18]
  Activity: Active
RAW264.7 [19]
  Activity: inactive
Mus musculus [20]
  Activity: inactive
RAW264.7 [21]
  Activity: inactive
Staphylococcus aureus
  Activity: inactive
RAW264.7 [22]
  Activity: inactive
[23]
  Activity: 79.2%
Mus musculus [24]
  Activity: Active
[25]
  Activity: Non-Toxic
RAW264.7 [26]
  OD: 0.103
Neutrophil [27]
  Activity: Dose-Dependent Effect
RAW264.7 [28]
  Activity: 30
Neutrophil [29]
  Activity: 50.4%
RAW264.7 [30]
  Activity: inactive
[31]
  Activity: 38.9%
